Measurements as given in patent US20010025105A1, “Certain substituted 1-aryl-3-piperazine-1'-yl propanones” (Molecular Geriatarics Corporation, priority 1997, published 2001).
Counter-ions that a name gives are not always drawn.

test system: microtubule cytoskeleton of human CG neuroblastoma cells; assay: Antimicrotubule activity, tubulin immunofluorescence microscopy; assay type: cell-based; settings: 2 hr at 37° C., read-out: Concentration where microtubule destabilization occurs
Protocol: The compounds of the invention according to formula I are effective in destabilizing microtubules, thus are useful in treating certain neoplastic diseases. Indirect immunofluorescence microscopy using the monoclonal antibodies to tubulin is used herein to determine the activity of the compounds of this invention in promoting depolymerization of the microtubule cytoskeleton in cultured cells. The following assay was employed.
Cultured human CG neuroblastoma cells were seeded 1:3 from confluent cultures onto sterile 11×22 mm coverslips in 6 well tissue culture plates 16 hr prior to treatment. The following day, the tissue culture medium is removed and the cells are exposed to various concentrations of compounds of this invention in Krebs Ringer Hepes (KRH) buffer containing a final concentration of 0.5% DMSO as carrier. Incubations were performed at 37° C. in a humidified 5% CO2 atmosphere for 2 hr. After incubation, the cells were fixed in 3% TEM grade formaldehyde in PBS for 45 min at room temperature.
To visualize the effects of the compounds of the invention on the microtubule cytoskeleton, the cells were processed for tubulin immunofluorescence. Briefly, the cells were permeabilized in 0.5% Triton-X 100 in PBS for 5 min. The cells were washed 2× with PBS and aldehydes reduced using 0.5 mg/ml NaBH4 in PBS for 5 min. Subsequently, the cells were blocked for 10 min in 1.5% BSA and 1.5% nonfat dry milk in PBS (blocking solution, BS) for 10 min. The cells were then incubated for 30 min at 37° C. with the monoclonal antibody Tu27B which recognizes b-tubulin (dilution 1:20 in BS). Subsequently, the cells were washed 2× in PBS and once in BS. The cells were then incubated for 30 min at 37° C. with sheep antimouse IgG conjugated to FITC. After incubation, the cells were washed 2× in PBS and once in BS and incubated for 30 min at 37° C. with rabbit antisheep IgG conjugated to FITC. The cells were rinsed in PBS, counterstained with Hoechst 33285 in PBS (1 μg/ml), and rinsed in PBS. The coverslips were mounted in 9:1 glycerol:PBS containing 1 mg/ml p-phenylenediamine and sealed with nail polish.
The cells were viewed using a Jenalumar epifluorescence microscope equipped with the proper filters for Fluorescein Isothiocyanate (FITC) excitation and emission. Lack of effect of a compound is evidenced by the presence of an intact microtubule network in interphase cells, or a mitotic spindle in dividing cells. Antineoplastic compounds of the invention at effective doses result in the disappearance of microtubules in both interphase and mitotic cells.

Compound	minimal effective concentration [µM]
Cl.Cl.N#Cc1cccc(C(=O)CCN2CCN(Cc3ccccc3)CC2)c1 [Example 60, 1-(m-Cyanophenyl)-3-(4′-benzyl-1′-piperazinyl)-1-propanone dihydrochloride]	20
Cl.O=C(CCN1CCN(C(=O)c2c(F)cccc2F)CC1)c1ccccc1F [Example 41, 1-(o-Fluorophenyl)-3-[4′-(2″,6″-difluorobenzoyl)1′-piperazinyl]-1-propanone hydrochloride]	20
Cl.Cl.O=C(CCN1CCN(Cc2ccccc2)CC1)c1conc1-c1ccccc1 [Example 112, 1-(3″-Phenylisoxazol-4″-yl)-3-(4′-benzyl-1′-piperazinyl)-1-propanone dihydrochloride]	20
Cl.Cl.O=C(CCN1CCN(Cc2ccccc2)CC1)c1cccs1 [Example 7, 1-(2″-Thienyl)-3-(4′-benzyl-1′-piperazinyl)-1-propanone dihydrochloride]	20
Cl.Cl.O=C(CCN1CCN(Cc2cc(F)ccc2F)CC1)c1ccsc1 [Example 38, 1-(3″-Thienyl)-3-[4′-(2′″,5′″-difMuorobenzyl)-1′-piperazinyl]-1-propanone dihydrochloride]	20
Cl.Cl.O=C(CCN1CCN(Cc2ccccc2)CC1)c1ccc(Nc2ccc([N+](=O)[O-])cc2[N+](=O)[O-])cc1 [Example 113]	20
Cl.Cl.O=C(CCN1CCN(Cc2ccccc2)CC1)c1ccc(C2CCCCC2)cc1 [Example 27]	20

same assay, conditions: Neuroblastoma cell, 2 hr at 37° C., read-out: Concentration where microtubule destabilization occurs

Compound	minimal effective concentration [µM]
O=C(CCN1CCN(C(=O)c2c(F)cccc2F)CC1)c1ccc([N+](=O)[O-])cc1 [Example 40, 1-(p-Nitrophenyl)-3-[4′-(2″,6″-difluorobenzoyl)-1′-piperazinyl]-1-propanone hydrochloride]	20
O=C(CCN1CCN(Cc2ccccc2)CC1)c1ccc(-c2ccccc2)cc1 [Example 22, 1-p-Biphenyl-3-(4′-benzyl-1′-piperazinyl)-1-propanone dihydrochloride]	20
O=C(CCN1CCN(C(=O)c2ccccc2F)CC1)c1cccs1 [Example 70, 1-(2″-Thienyl)-3-[4′-(o-fluorobenzoyl)-1′-piperazinyl]-1-propanone hydrochloride]	20
O=C(CCN1CCN(Cc2ccccc2)CC1)c1cc(C(F)(F)F)cc(C(F)(F)F)c1 [Example 9, 1-[3″,5″-Bis-(trifluoromethyl)phenyl]-3-(4′-benzyl-1′-piperazinyl)-1-propanone dihydrochloride]	20
O=C(CCN1CCN(Cc2ccccc2)CC1)c1ccc(C(=O)CCN2CCN(Cc3ccccc3)CC2)cc1 [Example 50]	20
O=C(CCN1CCN(Cc2ccccc2)CC1)c1ccc2c(c1)CCCC2 [Example 20, 1-(1″,2″,3″,4″-Tetrahydronaphth-6″-yl)-3-(4′-benzyl-1′-piperazinyl)-1-propanone dihydrochloride]	20
CC[C@]1(O)C[C@@H]2CN(CCc3c([nH]c4ccccc34)[C@@](C(=O)OC)(c3cc4c(cc3OC)N(C)[C@H]3[C@@](O)(C(=O)OC)[C@H](OC(C)=O)[C@]5(CC)C=CCN6CC[C@]43[C@@H]65)C2)C1 [vinblastine, reference compound]	0.05

test system: not given; assay: not given; settings: not given

Compound	melting point
O=C(CCN1CCN(C(=O)c2sc3ccccc3c2Cl)CC1)c1ccc(Br)s1 (as salt: hydrochloride) [Example 86, 1-(5″-Bromo-2″-thienyl)-3-[4′-(3′″-chlorobenzo[b]-2′″-thienoyl)-1′-piperazinyl]-1-propanone dihydrochloride]	188 to 189 °C
O=C(CCN1CCN(Cc2ccccc2)CC1)c1ccc2c(c1)OCCO2 (as salt: hydrochloride) [Example 19, 1-(2″,3″-Dihydro-1″,4″-benzodioxan-6″-yl)-3-(4′-benzyl-1′-piperazinyl)-1-propanone dihydrochloride]	215 °C (dec.)
Cl.Cl.O=C1c2ccccc2SCC1CN1CCN(Cc2ccccc2)CC1 (centres unmarked)	> 250 °C (dec.)
O=C(CCN1CCN(Cc2ccccc2)CC1)c1ccc(I)cc1 (as salt: hydrochloride) [Example 1, 1-(piodophenyl)-3-(4′-benzyl-1′-piperazinyl)-1-propanonedihydrochloride]	224 °C (dec.)
O=C(CCN1CCN(Cc2ccccc2)CC1)c1cc2ccccc2o1 (as salt: hydrochloride) [Example 10, 1-(Benzofur-2″-yl)-3-(4′-benzyl-1′-piperazinyl)-1-propanone dihydrochloride]	255 to 257 °C
O=C(CCN1CCN(Cc2ccccc2)CC1)c1ccc2c(c1)Cc1ccccc1-2 (as salt: hydrochloride) [Example 28, 1-(Fluoren-2″-yl)-3-(4′-benzyl-1′-piperazinyl)-1-propanone dihydrochloride]	225 °C (dec.)
O=C(CCN1CCN(C(=O)c2c(F)cccc2F)CC1)c1ccc(Br)s1 (as salt: hydrochloride) [Example 62, 1-(5′″-Bromo-2′″-thienyl)-3-[4′-(2″,6″-difluorobenzoyl)-1′-piperazinyl]-1-propanone hydrochloride]	225 to 226 °C
O=C(CCN1CCN(C(=O)c2ccccc2F)CC1)c1ccc([N+](=O)[O-])cc1 (as salt: hydrochloride) [Example 54, 1-(p-Nitrophenyl)-3-(4′-o-fluorobenzoyl-1′-piperazinyl)-1-propanone dihydrochloride]	217 to 218 °C
O=C(CCN1CCN(Cc2ccccc2)CC1)c1ccc(-c2ccccc2)cc1 (as salt: hydrochloride) [Example 22, 1-p-Biphenyl-3-(4′-benzyl-1′-piperazinyl)-1-propanone dihydrochloride]	225 °C (dec.)
O=C(CCN1CCN(Cc2ccccc2)CC1)c1cc(C(F)(F)F)cc(C(F)(F)F)c1 (as salt: hydrochloride) [Example 9, 1-[3″,5″-Bis-(trifluoromethyl)phenyl]-3-(4′-benzyl-1′-piperazinyl)-1-propanone dihydrochloride]	255 °C
Cn1cc(C(=O)CCN2CCN(Cc3ccccc3)CC2)cn1 (as salt: hydrochloride) [Example 24, 1-(1″-Methyl-1″-H-pyrazol-4″-yl)-3-(4′-benzyl-1′-piperazinyl)-1-propanone dihydrochloride]	221 °C (dec.)
O=C(CCN1CCC(C(=O)c2ccc(F)cc2)CC1)c1csc([N+](=O)[O-])c1 (as salt: hydrochloride) [Example 98, 1-(2″-Nitro-4″-thienyl)-3-(4′-p-fluorobenzoyl-1′-piperidinyl)-1-propanone hydrochloride]	205 to 206 °C
Cc1ccc(C(=O)CCN2CCN(Cc3ccccc3)CC2)o1 (as salt: hydrochloride) [Example 67, 1-(5″-Methyl-2″-furanyl)-3-(4′-benzyl-1′-piperazinyl)-1-propanone hydrochloride]	213 °C (dec.)
O=C(CCN1CCN(Cc2ccccc2)CC1)c1ccc(-c2ccccc2)s1 (as salt: hydrochloride) [Example 56, 1-(5″-Phenyl-2″-thienyl)-3-(4′-benzyl-1′-piperazinyl)-1-propanone dihydrochloride]	224 to 247 °C
CS(=O)(=O)Nc1ccc(C(=O)CCN2CCN(Cc3ccccc3)CC2)cc1 (as salt: hydrochloride) [Example 26, 1-[-p-(Methanesulfonamido)phenyl]-3-(4′-benzyl-1′-piperazinyl)-1-propanone dihydrochloride]	202 to 205 °C
O=C(CCN1CCN(Cc2ccccc2)CC1)c1ccc2c(c1)CCCC2 (as salt: hydrochloride) [Example 20, 1-(1″,2″,3″,4″-Tetrahydronaphth-6″-yl)-3-(4′-benzyl-1′-piperazinyl)-1-propanone dihydrochloride]	200 °C (dec.)
O=C(CCN1CCN(C(=O)c2ccccc2F)CC1)c1cccs1 (as salt: hydrochloride) [Example 70, 1-(2″-Thienyl)-3-[4′-(o-fluorobenzoyl)-1′-piperazinyl]-1-propanone hydrochloride]	183 to 184 °C
O=C(CCN1CCN(C(=O)c2ccc(I)cc2)CC1)c1ccc(N2CCOCC2)cc1 (as salt: hydrochloride) [Example 68, 1-(p-N-Morpholinophenyl)-3-[4′-p-iodobenzoyl)-1′-piperazinyl]-1-propanone dihydrochloride]	240 °C
